Experimental data taken from patent US20200385777A1, “METHOD FOR DETERMINING DYSBIOSIS IN THE INTESTINAL MICROBIOME” (EVOLVE BIOSYSTEMS, INC., priority 2018, published 2020).

Assays:
isolate 7084-4 = test: MIC microdilution, fecal isolate 7084-4; format: cell-based; settings: for MIC: read-out: Minimum inhibitory concentration (MIC)
Description: (§1) Whole genome sequencing and assembly of bacterial isolates. […] Selected isolates were grown in 20 ml LB broth overnight at 37° C. Cultures were aliquoted into 1 ml aliquots, centrifuged at 10,000×g for 5 min and the supernatant was removed. Cell pellets were resuspended in DNA/RNA Shield solution provided in DNA/RNA Shield Microbe Lysis tubes (Zymo Research, Irvine Calif.) and transferred into lysis tubes. High-molecular weight genomic DNA was extracted using the Quick-DNA Fecal/Soil
(§2) Minimal inhibitory concentrations. […] Carbenicillin was added to growth media for transformed strains at a concentration of 100 μg/ml. The microtiter plates were incubated for 24 h at 37° C. The optical density (OD) of each well was measured at 600 nm using an automated microtiter plate reader (BIO-TEK, Synergy HT). The MIC corresponded to the lowest antibiotic concentration at which no growth was detected. All tests were performed in triplicate

isolate 7122-1 = test: MIC microdilution, fecal isolate 7122-1; format: cell-based; settings: for MIC: read-out: Minimum inhibitory concentration (MIC)
Description: as §1, §2

isolate 7174-5 = test: MIC microdilution, fecal isolate 7174-5; format: cell-based; settings: for MIC: read-out: Minimum inhibitory concentration (MIC)
Description: as §1, §2

DH5α = test: MIC microdilution, DH5α; format: cell-based; settings: for MIC: read-out: Minimum inhibitory concentration (MIC)
Description: as §2

isolate 7174-2 = test: MIC microdilution, fecal isolate 7174-2; format: cell-based; settings: for MIC: read-out: Minimum inhibitory concentration (MIC)
Description: as §1, §2

isolate 7084-1 = test: MIC microdilution, fecal isolate 7084-1; format: cell-based; settings: for MIC: read-out: Minimum inhibitory concentration (MIC)
Description: as §1, §2

isolate 7122-2 = test: MIC microdilution, fecal isolate 7122-2; format: cell-based; settings: for MIC: read-out: Minimum inhibitory concentration (MIC)
Description: as §1, §2

isolate 7084-5 = test: MIC microdilution, fecal isolate 7084-5; format: cell-based; settings: for MIC: read-out: Minimum inhibitory concentration (MIC)
Description: as §1, §2

isolate 7174-4 = test: MIC microdilution, fecal isolate 7174-4; format: cell-based; settings: for MIC: read-out: Minimum inhibitory concentration (MIC)
Description: as §1, §2

isolate 7122-9 = test: MIC microdilution, fecal isolate 7122-9; format: cell-based; settings: for MIC: read-out: Minimum inhibitory concentration (MIC)
Description: as §1, §2

[1] = test system: bacteria isolated from EMB agar from fecal samples of control infants; test: MIC, fecal isolates of control infants taken together; format: cell-based, Escherichia coli; Raoultella planticola; settings: all fecal isolates
Description: To confirm the presence of full length, functional ARGs and the relationship of these ARGs to individual resistance phenotypes at the strain level, bacteria isolated from EMB agar were obtained from the fecal samples of four representative control infants. Whole-genome sequencing of twelve isolates was performed on a MinION sequencer and assembly led to an average coverage of 18× (min 5.4; max 40). Taxonomic identification was confirmed via BLASTN against the NCBI nucleotide database (https://www.ncbl.nlrn.nih.gov/nucleotide) showing three isolates classified as Raoultella planticola and the remaining nine as Escherichia coli. The CARD protein sequences collection was used as query against the twelve assembled isolates via TBLASTN. […] The latter genes are likely absent on the E. coli and R. planticola genomes and present on different species.
Whole genome sequencing and assembly of bacterial isolates. […]
Minimal inhibitory concentrations. Minimal inhibitory concentrations (MICs) were determined according to Clinical and Laboratory Standards Institute guidelines for microdilution susceptibility testing {Wikler, 2006}. […] The optical density (OD) of each well was measured at 600 nm using an automated microtiter plate reader (BIO-TEK, Synergy HT). The MIC corresponded to the lowest antibiotic concentration at which no growth was detected. […]

isolate 7005-9 = test: MIC microdilution, fecal isolate 7005-9; format: cell-based
Description: as §1, §2

isolate 7005-5 = test: MIC microdilution, fecal isolate 7005-5; format: cell-based
Description: as §1, §2

isolate 7005-11 = test: MIC microdilution, fecal isolate 7005-11; format: cell-based
Description: as §1, §2

isolate 7005-13 = test: MIC microdilution, fecal isolate 7005-13; format: cell-based
Description: as §1, §2

Clostridium difficile = test: Equine trial: Clostridium difficile diarrhea outcome in foals; format: in vivo, horse; settings: all foals dosed at birth with 6.6 mg/kg
Description: Seventeen foals were born during the initiation of the outbreak, of which fifteen animals became ill and required intervention, applying the standard of care (i.e., antibiotic treatment) and two died. […] All treated animals were given doses immediately at birth and twice per day thereafter for 4 days. […] Two foals, who were dosed starting at 12 hours of life rather than immediately at birth, developed a mild infection by Clostridium difficile but recovered within 8 hr compared to the standard recovery time of >24 hr for sick animals given the standard of care. […] A Fisher's exact test of the two populations (Standard of Care and Probiotic treated) yields a significant difference in incidences of C. difficile infection (p=0.0036) (Table 10).

[2] = read-out: Minimum inhibitory concentration (MIC)

CN(C)[C@@H]1C(O)=C(C(N)=O)C(=O)[C@@]2(O)C(O)=C3C(=O)c4c(O)cccc4[C@@](C)(O)[C@H]3C[C@@H]12 [Tetracycline]
16 µg/mL: MIC (isolate 7084-4) | MIC (isolate 7122-1) | MIC (isolate 7084-1) | MIC (isolate 7084-5)
64 µg/mL: MIC (isolate 7174-5) | MIC (isolate 7174-2)
< 4 µg/mL: MIC (DH5α)
128 µg/mL: MIC (isolate 7174-4)
8 µg/mL: MIC (isolate 7122-2) | MIC (isolate 7122-9)

Gentamicin
No resistance: Resistance among the isolates [1]
<4 µg/mL: Minimum inhibitory concentration (MIC) (isolate 7084-4; isolate 7084-4) | Minimum inhibitory concentration (MIC) (isolate 7122-1; isolate 7122-1) | Minimum inhibitory concentration (MIC) (isolate 7005-9; isolate 7005-9) | Minimum inhibitory concentration (MIC) (isolate 7174-5; isolate 7174-5) | Minimum inhibitory concentration (MIC) (isolate 7005-5; isolate 7005-5) | Minimum inhibitory concentration (MIC) (DH5α) | Minimum inhibitory concentration (MIC) (isolate 7174-2; isolate 7174-2) | Minimum inhibitory concentration (MIC) (isolate 7084-1; isolate 7084-1) | Minimum inhibitory concentration (MIC) (isolate 7005-11; isolate 7005-11) | Minimum inhibitory concentration (MIC) (isolate 7005-13; isolate 7005-13) | Minimum inhibitory concentration (MIC) (isolate 7122-2; isolate 7122-2) | Minimum inhibitory concentration (MIC) (isolate 7084-5; isolate 7084-5) | Minimum inhibitory concentration (MIC) (isolate 7174-4; isolate 7174-4) | Minimum inhibitory concentration (MIC) (isolate 7122-9; isolate 7122-9)
(S): Resistant/Susceptible according to breakpoints for clinical resistance (isolate 7084-4; isolate 7084-4) | Resistant/Susceptible according to breakpoints for clinical resistance (isolate 7122-1; isolate 7122-1) | Resistant/Susceptible according to breakpoints for clinical resistance (isolate 7005-9; isolate 7005-9) | Resistant/Susceptible according to breakpoints for clinical resistance (isolate 7174-5; isolate 7174-5) | Resistant/Susceptible according to breakpoints for clinical resistance (isolate 7005-5; isolate 7005-5) | Resistant/Susceptible according to breakpoints for clinical resistance (DH5α) | Resistant/Susceptible according to breakpoints for clinical resistance (isolate 7174-2; isolate 7174-2) | Resistant/Susceptible according to breakpoints for clinical resistance (isolate 7084-1; isolate 7084-1) | Resistant/Susceptible according to breakpoints for clinical resistance (isolate 7005-11; isolate 7005-11) | Resistant/Susceptible according to breakpoints for clinical resistance (isolate 7005-13; isolate 7005-13) | Resistant/Susceptible according to breakpoints for clinical resistance (isolate 7122-2; isolate 7122-2) | Resistant/Susceptible according to breakpoints for clinical resistance (isolate 7084-5; isolate 7084-5) | Resistant/Susceptible according to breakpoints for clinical resistance (isolate 7174-4; isolate 7174-4) | Resistant/Susceptible according to breakpoints for clinical resistance (isolate 7122-9; isolate 7122-9)

CO/N=C(\C(=O)N[C@@H]1C(=O)N2C(C(=O)[O-])=C(C[N+]3(C)CCCC3)CS[C@H]12)c1csc(N)n1 [Cefepime]
64 µg/mL: MIC (isolate 7005-9; [2])
512 µg/mL: MIC (isolate 7005-11; [2]) | MIC (isolate 7005-13; [2])
16 µg/mL: MIC (isolate 7005-5; [2])
< 4 µg/mL: MIC (isolate 7084-4) | MIC (isolate 7122-1) | MIC (isolate 7174-5) | MIC (DH5α) | MIC (isolate 7174-2) | MIC (isolate 7084-1) | MIC (isolate 7122-2) | MIC (isolate 7084-5) | MIC (isolate 7174-4) | MIC (isolate 7122-9)

CO/N=C(\C(=O)N[C@@H]1C(=O)N2C(C(=O)O)=C(CSC(=O)c3ccco3)CS[C@H]12)c1csc(N)n1 [ceftiofur]
did not affect health outcome: Effect on health outcome related to diarrhea (Clostridium difficile)
